Patent US8835634B2, “Quinoxalinone derivatives as insulin secretion stimulators, methods for obtaining them and use thereof for the treatment of diabetes” (Merck Patent GmbH, priority 2008, dated 2014)

Legend:
[1] = test system: INS-1 cells; assay: Insulin secretion assay in INS-1 cells (glucose at 4.2 mM); format: cell-based, rat; settings: glucose 4.2 mM, 1 h incubation, control = glucose 4.2 mM; for Insulin secretion, % of ctrl at 10 μM of cpd: 10 μM compound; for Insulin secretion, % of ctrl at 50 μM of cpd: 50 μM compound
Procedure: Culture of Pancreatic INS-1 Cells
INS-1 cells were cultured in complete medium, RPMI1640 containing 1 mM sodium pyruvate, 50 μM 2-mercaptoethanol, 2 mM glutamine, 10 mM HEPES, 100 IU/mL penicillin, and 100 μg/mL streptomycin (CM), supplemented with 10 mM glucose, and 10% (vol/vol) heat-inactivated fetal calf serum (FCS), as described by Asfari et al. (Endocrinology 130: 167-178, 1992).
INS-1 cells were plated and cultured in 48-well plates. After 2 days of culture, the medium was removed and cells were cultured for 24 h with a medium change to 5 mM glucose, 1% FCS. The cells were then washed with Krebs-Ringer Bicarbonate HEPES buffer (KRBH; 135 mM NaCl; 3.6 mM KCl; 5 mM NaHCO3; 0.5 mM NaH2PO4; 0.5 mM MgCl2; 1.5 mM CaCl2 and 10 mM HEPES; pH 7.4) 0.1% BSA containing 2.8 mM glucose and preincubated for 30 min at 37° C. in the same buffer. The cells were then washed twice and incubated for 1 h in KRBH 0.1% BSA containing 4.2 mM glucose and different concentrations of the tested molecule. Insulin concentration in the collected supernatants was measured with ELISA using rat insulin antibody (Insulin Rat Elit PLUS, cat. ref 10-1145-01).
Insulin secretion results are expressed in % of control (glucose 4.2 mM).
Insulin Secretion in INS-1 Cells (Glucose at 4.2 mM)

[2] = test system: diabetic N0STZ rat islets; assay: Insulin secretion in diabetic N0STZ rat islets; format: cell-based; settings: 90 min, Means±SEM
Procedure: Insulin Secretion in Diabetic N0STZ Rat Islets. Materials and Methods. Islets Isolation and Treatments.
14±3 weeks non-fasted N0STZ (PORTHA et al., 1974) male rats (Charles Rivers-Domaine des Oncins, I'Arbresle, France) were anesthetised with sodium pentobarbital (Nembutal®: 45 mg/kg in 5 ml/kg administered intra peritoneally) and body temperature was maintained with a heat lamp.
Rat pancreatic islets of Langerhans were isolated from the pancreas of 8 rats by collagenase P (Boehringer, Meylan, France) digestion. Islets were purified by sedimentation in Hanks balanced salt solution [NaCl (137 mM); KCl (5.36 mM); MgSO4, 7 H2O (0.81 mM); Na2HPO4, 12 H2O (0.34 mM); KH2PO4 (0.44 mM); CaCl2, 2 H2O (1.26 mM); NaHCO3 (4.17 mM)] followed by Ficoll gradient separation. Islets were then hand-picked under stereoscopic microscope and batches of 3 islets were incubated for 90 minutes at 37° C. with continuous shaking under a humidified condition (95% O2, 5% CO2) in 1 ml of Krebs/Hepes pH 7 solution [NaCl (115 mM), NaHCO3 (24 mM), KCl (5 mM), MgCl2 (1 mM), CaCl2, 2 H2O (1 mM), 0.2% of Bovine serum albumin (Fraction V, fatty acid free, Boehringer, Mannheim), 10 mM Hepes] containing the required glucose or compound concentration. Compounds were dissolved in DMSO at 2.10-2M stock solutions. They were then diluted at the required concentration in Krebs/Hepes buffer containing the required glucose concentration.
At the end of incubation, media was collected and insulin levels were measured using ELISA (EUROBIO, Courtaboeuf, France).
Islets were hand-picked and incubated in the presence of increasing concentrations of compounds in the presence of glucose at 2.8 or 8 mM. At the end of incubation, media was collected and insulin levels were measured using ELISA method. Results are expressed as % of glucose control (2.8 or 8 mM) and represent Means±SEM.

[3] = glucose 2.8 mM, compound 10−4 M

melting point [°C]	SMILES	Insulin secretion, % of ctrl at 10 μM of cpd [1]	Insulin secretion, % of ctrl at 50 μM of cpd [1]	further results
85 to 88	O=c1c(-c2ccccc2)nc2ccccc2n1CC(F)F [Example 3, 1-(2,2-difluoroethyl)-3-phenyl-quinoxalin-2(1H)-one]			
133 to 136	O=c1c(-c2ccc(Cl)cc2)nc2ccccc2n1CC(F)F [Example 3-2, 3-(4-chlorophenyl)-1-(2,2-difluoroethyl)quinoxalin-2(1H)-one]	540 % of ctrl	666 % of ctrl	
102 to 105	O=c1c(-c2ccc(Cl)cc2)nc2ccccc2n1C1CC1 [Example 3-3, 3-(4-chlorophenyl)-1-cyclopropyl-quinoxalin-2(1H)-one]			
116 to 118	CCn1c(=O)c(-c2ccc(F)cc2)nc2cc(F)c(F)cc21 [Example 3-9, 1-ethyl-6,7-difluoro-3-(4-fluorophenyl)quinoxalin-2(1H)-one]			
135 to 137	CCn1c(=O)c(-c2ccc(Cl)cc2)nc2cc(F)c(F)cc21 [Example 3-10, 1-ethyl-6,7-difluoro-3-(4-chlorophenyl)quinoxalin-2(1H)-one]			
102 to 105	O=c1c(-c2ccccc2)nc2ccccc2n1C1CC1 [Example 3-11, 1-cyclopropyl-3-phenylquinoxalin-2(1H)-one]	371 % of ctrl	468 % of ctrl	
179 to 182	O=c1c(-c2ccc(F)cc2)nc2ccccc2n1C1CC1 [Example 3-14, 1-cyclopropyl-3-(4-fluorophenyl)quinoxalin-2(1H)-one]			
40 to 43	CCCCn1c(=O)c(-c2ccccc2)nc2ccccc21 [Example 3-16, 1-butyl-3-phenyl-quinoxalin-2(1H)-one]			
117 to 119	CCc1nc2cc(F)c(F)cc2n(CC)c1=O [Example 3-24, 1,3-diethyl-6,7-difluoro-quinoxalin-2(1H)-one]			
48 to 51	CCCCn1c(=O)c(CC)nc2ccccc21 [Example 3-29, 1-butyl-3-ethylquinoxalin-2(1H)-one]			
72 to 75	CCCc1nc2ccccc2n(C2CC2)c1=O [Example 3-32, 1-cyclopropyl-3-propylquinoxalin-2(1H)-one]			
77 to 80	CCc1nc2ccccc2n(C2CC2)c1=O [Example 3-33, 1-cyclopropyl-3-ethylquinoxalin-2(1H)-one]			
151 to 154	O=c1c(-c2ccc(F)cc2)nc2ccccc2n1CC(F)F [Example 3-34, 1-(2,2-difluoroethyl)-3-(4-fluorophenyl)quinoxalin-2(1H)-one]			
110 to 115	CCn1c(=O)c(-c2ccc(F)cc2)nc2ccccc21 [Example 6-3, 1-ethyl-3-(4-fluorophenyl)quinoxalin-2(1H)-one]	316 % of ctrl	423 % of ctrl	Insulin secretion, % of glucose control [2, 3]: 114 ± 17 % of glucose control; Insulin secretion, % of glucose control ([2]; glucose 8 mM, compound 10−4 M): 440 ± 8 % of glucose control; Insulin secretion, % of glucose control ([2]; glucose 8 mM, compound 10−5 M): 168 ± 9 % of glucose control; Insulin secretion, % of glucose control ([2]; glucose 8 mM, compound 10−6 M): 135 ± 11 % of glucose control; Insulin secretion, % of glucose control ([2]; glucose 8 mM, compound 10−7 M): 133 ± 8 % of glucose control
	CCn1c(=O)c(-c2ccc(C)cc2)nc2ccccc21 [Example 6-4, 1-ethyl-3-(4-methylphenyl)quinoxalin-2(1H)-one]	305 % of ctrl	391 % of ctrl	
	CCn1c(=O)c(-c2ccc(F)cc2C)nc2ccccc21 [Example 6-5, 1-ethyl-3-(4-fluoro-2-methylphenyl)quinoxalin-2(1H)-one]	287 % of ctrl	325 % of ctrl	
	CCn1c(=O)c(-c2ccc(C(F)(F)F)cc2)nc2ccccc21 [Example 6-7, 1-ethyl-3-(4-trifluoromethylphenyl)quinoxalin-2(1H)-one]	221 % of ctrl	466 % of ctrl	

SMILES	melting point [°C]	Insulin secretion, % of ctrl at 10 μM of cpd [1]	Insulin secretion, % of ctrl at 50 μM of cpd [1]	further results
CCn1c(=O)c(-c2ccc(Cl)cc2)nc2ccccc21 [Example 6, 3(4-chlorophenyl)-1-ethyl-quinoxalin-2(1H)-one]	138 to 140	325 % of ctrl	495 % of ctrl	Insulin secretion, % of glucose control [2, 3]: 94 ± 17 % of glucose control; Insulin secretion, % of glucose control ([2]; glucose 8 mM, compound 10−4 M): 413 ± 7 % of glucose control; Insulin secretion, % of glucose control ([2]; glucose 8 mM, compound 10−5 M): 226 ± 12 % of glucose control; Insulin secretion, % of glucose control ([2]; glucose 8 mM, compound 10−6 M): 124 ± 8 % of glucose control; Insulin secretion, % of glucose control ([2]; glucose 8 mM, compound 10−7 M): 126 ± 9 % of glucose control
